From patent US20060293307A1, “Oxazolidinone derivatives as antimicrobials” (priority 2002, published 2006)
Values after ≈ are worked out from the molar mass of the structure shown. Where two headings read alike, the source gives them in different places.

Legend:
[1] = test system: H. influenzae ATCC 49247; assay: MIC against Haemophilus strains; format: cell-based
[2] = test system: H. influenzae 474; assay: MIC against Haemophilus strains; format: cell-based
[3] = test system: S. warnerii ST360; assay: MIC, agar incorporation method; format: cell-based
[4] = test system: H. influenzae R; assay: MIC against Haemophilus strains; format: cell-based
[5] = test system: H. influenzae P318; assay: MIC against Haemophilus strains; format: cell-based
[6] = test system: H. influenzae βIac; assay: MIC against Haemophilus strains; format: cell-based
[7] = test system: M. avium ATCC 1723; assay: MIC against MAC strains, agar dilution; format: cell-based, Mycobacterium avium; conditions: S. No. 03 Ma-3, M. avium ATCC 1723; Middle Brook 7H10 + OADC, 37° C., 14-21 days
[8] = test system: M. tuberculosis PC; assay: MIC against M. tuberculosis strains, agar dilution; format: cell-based, Mycobacterium tuberculosis; conditions: S. No. 22 Mt-, Middle Brook 7H10 + OADC, 37° C., 14-21 days
[9] = test system: M. avium intracellulare 1211/96; assay: MIC against MAC strains, agar dilution; format: cell-based; conditions: S. No. 13 Mai-5, M. avium intracellulare 1211/96; Middle Brook 7H10 + OADC, 37° C., 14-21 days
[10] = test system: M. avium intracellulare 356/97; assay: MIC against MAC strains, agar dilution; format: cell-based; conditions: S. No. 10 Mai-1, M. avium intracellulare 356/97; Middle Brook 7H10 + OADC, 37° C., 14-21 days
[11] = test system: M. avium AIIMS; assay: MIC against MAC strains, agar dilution; format: cell-based, Mycobacterium avium; conditions: S. No. 04 Ma-4, M. avium AIIMS; Middle Brook 7H10 + OADC, 37° C., 14-21 days
[12] = test system: M. tuberculosis PC; assay: MIC against M. tuberculosis strains, agar dilution; format: cell-based, Mycobacterium tuberculosis; conditions: S. No. 16 Mt-, Middle Brook 7H10 + OADC, 37° C., 14-21 days
[13] = test system: M. tuberculosis PC; assay: MIC against M. tuberculosis strains, agar dilution; format: cell-based, Mycobacterium tuberculosis; conditions: S. No. 20 Mt-, Middle Brook 7H10 + OADC, 37° C., 14-21 days
[14] = test system: M. tuberculosis SGPGI; assay: MIC against M. tuberculosis strains, agar dilution; format: cell-based, Mycobacterium tuberculosis; conditions: S. No. 07 Mt-, Middle Brook 7H10 + OADC, 37° C., 14-21 days
[15] = test system: M. tuberculosis H37Rv; assay: MIC against M. tuberculosis strains, agar dilution; format: cell-based, Mycobacterium tuberculosis; conditions: S. No. 04 Mt-, Middle Brook 7H10 + OADC, 37° C., 14-21 days
[16] = test system: M. avium intracellulare 926/98; assay: MIC against MAC strains, agar dilution; format: cell-based; conditions: S. No. 14 Mai-6, M. avium intracellulare 926/98; Middle Brook 7H10 + OADC, 37° C., 14-21 days
[17] = test system: M. tuberculosis PC 4793; assay: MIC against M. tuberculosis strains, agar dilution; format: cell-based, Mycobacterium tuberculosis; conditions: S. No. 23 Mt-, Middle Brook 7H10 + OADC, 37° C., 14-21 days
[18] = test system: M. tuberculosis PC; assay: MIC against M. tuberculosis strains, agar dilution; format: cell-based, Mycobacterium tuberculosis; conditions: S. No. 19 Mt-, Middle Brook 7H10 + OADC, 37° C., 14-21 days
[19] = test system: M. intracellulare B-78/3; assay: MIC against MAC strains, agar dilution; format: cell-based; conditions: S. No. 09 Mi-4, M. intracellulare B-78/3; Middle Brook 7H10 + OADC, 37° C., 14-21 days
[20] = s. No. 2, H. influenzae ATCC 49247
[21] = Haemophilus influenzae, ATCC49247, s. No. 2, H. influenzae ATCC 49247, read-out: MIC
[22] = Haemophilus influenzae, s. No. 11, H. influenzae 474, read-out: MIC
[23] = Haemophilus influenzae, s. No. 4, H. influenzae R, read-out: MIC
[24] = Haemophilus influenzae, s. No. 10, H. influenzae P318, read-out: MIC
[25] = Haemophilus influenzae, s. No. 3, H. influenzae βIac, read-out: MIC

Row | Compound | MIC [1, 20] [mg/L] | MIC ([2]; s. No. 11, H. influenzae 474) [mg/L] | MIC ([3]; S. No. 16, S. warnerii ST360) [mg/L] | MIC ([4]; s. No. 4, H. influenzae R) [mg/L] | MIC ([5]; s. No. 10, H. influenzae P318) [mg/L] | MIC ([6]; s. No. 3, H. influenzae βIac) [mg/L] | MIC [3] [mg/L] | other results
1 | CC(=O)NC[C@H]1CN(c2ccc(N3CCN(c4cc(C(OC(C)=O)OC(C)=O)sc4[N+](=O)[O-])CC3)c(F)c2)C(=O)O1 [Compound No. 5, (S)—N-[[3-[3-Fluoro-4-[4-{3-thienyl(2-nitro)-5-acetyloxy}methylacetate]-1-piperazinyl]phenyl]-2-oxo-5-oxazolidinyl]acetamide] | >16 | >16 | 0.25 (≈ 0.421 µM) | 16 (≈ 27 µM) | >16 | >16 | – | –
2 | C[C@H](Cl)C(=O)NCC1CN(c2ccc(N3CCN(c4ccc([N+](=O)[O-])s4)CC3)c(F)c2)C(=O)O1 (stereo partly drawn) [Compound No. 7, (S)—N-[[3-[3-Fluoro-4-[N-1-{4-(5-nitro-2-thienyl)piperazinyl}]-phenyl]-2-oxo-5-oxazolidinyl]-methyl]-2-chloro-propionamide] | >16 | >16 | 4 (≈ 7.81 µM) | >16 | >16 | >16 | – | –
3 | CO[C@H]1/C=C/O[C@@]2(C)Oc3c(C)c(O)c4c(O)c(c(/C=N/N5CCN(C)CC5)c(O)c4c3C2=O)NC(=O)/C(C)=C\C=C\[C@H](C)[C@H](O)[C@@H](C)[C@@H](O)[C@@H](C)[C@H](OC(C)=O)[C@@H]1C [RIF] | – | – | – | – | – | – | – | MIC [7]: 1.0 mg/L; MIC [8]: 2.0 mg/L; MIC [9]: 0.25 mg/L; MIC [10]: 0.5 mg/L; MIC [11]: 4.0 mg/L; MIC [12]: 4.0 mg/L; MIC [13]: 2.0 mg/L; MIC [14]: >32 mg/L; MIC [15]: 0.25 mg/L; MIC [16]: 0.25 mg/L; MIC [17]: 2.0 mg/L; MIC [18]: 0.06 mg/L; MIC [19]: 0.25 mg/L
4 | (S)—N-[[3-[-3-Fluoro-4-[(5-nitro-2-thienyl)-3-methyl-1-piperazinyl]phenyl]-2-oxo-5-oxazolidinyl]methyl]acetamide [Compound No. 10] | >16 | >16 | 0.5 | >16 | >16 | >16 | – | –
5 | O=C(NC[C@H]1CN(c2ccc(N3CCN(c4ccc([N+](=O)[O-])s4)CC3)c(F)c2)C(=O)O1)C(F)F [Compound No. 8, (S)—N-[[3-[3-Fluoro-4-[4-(5-nitro-2-thienyl)-1-piperazinyl]phenyl]-2-oxo-5-oxazolidinyl]methyl]difluoroacetamide] | – | – | – | – | – | – | 0.25 (≈ 0.501 µM) | MIC ([1]; Haemophilus influenzae, ATCC49247): > 16 mg/L; MIC ([2]; Haemophilus influenzae, 474): > 16 mg/L; MIC ([4]; Haemophilus influenzae): > 16 mg/L; MIC ([5]; Haemophilus influenzae, P318): > 16 mg/L; MIC ([6]; Haemophilus influenzae): > 16 mg/L
6 | CC(=O)NC[C@H]1CN(c2ccc(N3CCN(c4ccc(C=O)s4)CC3)c(F)c2)C(=O)O1 [Compound No. 2, (S)—N-[[3-[3-Fluoro-4-[4-(5-formyl-2-thienyl)-1-piperazinyl]phenyl]-2-oxo-5-oxazolidinyl]methyl]acetamide] | – | – | – | – | – | – | < 0.25 | MIC [1, 21]: 16 mg/L (≈ 35.8 µM); MIC [2, 22]: 16 mg/L (≈ 35.8 µM); melting point: 180 °C (dec.); MIC [4, 23]: > 16 mg/L; MIC [5, 24]: > 16 mg/L; MIC [6, 25]: 16 mg/L (≈ 35.8 µM)
7 | CC(=O)NC[C@H]1CN(c2ccc(N3CCN(c4ccc([N+](=O)[O-])o4)CC3)c(F)c2)C(=O)O1 [Compound No. 4, (S)—N-[[3-[3-Fluoro-4-[4-(5-nitro-2-furyl)-1-piperazinyl]phenyl]-2-oxo-5-oxazolidinyl]methyl]acetamide] | – | – | – | – | – | – | 8 (≈ 17.9 µM) | melting point: 191 to 204 °C
8 | CN[C@H](CC(C)C)C(=O)N[C@H]1C(=O)N[C@@H](CC(N)=O)C(=O)N[C@H]2C(=O)N[C@H]3C(=O)N[C@H](C(=O)N[C@H](C(=O)O)c4cc(O)cc(O)c4-c4cc3ccc4O)[C@H](O)c3ccc(c(Cl)c3)Oc3cc2cc(c3O[C@@H]2O[C@H](CO)[C@@H](O)[C@H](O)[C@H]2O[C@H]2C[C@](C)(N)[C@H](O)[C@H](C)O2)Oc2ccc(cc2Cl)[C@H]1O [Vancomycin, reference compound] | – | – | – | – | – | – | 0.5 (≈ 0.345 µM) | –
9 | CC(=O)NC[C@H]1CN(c2ccc(N3CCN(c4ccc(C=O)o4)CC3)c(F)c2)C(=O)O1 [Compound No. 3, (S)—N-[[3-[3-Fluoro-4-[4-(5-formyl-2-furyl)-1-piperazinyl]phenyl]-2-oxo-5-oxazolidinyl]methyl]acetamide] | – | – | – | – | – | – | – | MIC [1, 21]: 4 mg/L (≈ 9.29 µM); MIC [2, 22]: 4 mg/L (≈ 9.29 µM); melting point: 176 °C; MIC [4, 23]: 8 mg/L (≈ 18.6 µM); MIC [5, 24]: 8 mg/L (≈ 18.6 µM); MIC [6, 25]: 4 mg/L (≈ 9.29 µM)
10 | O=C(NC[C@H]1CN(c2ccc(N3CCN(c4ccc([N+](=O)[O-])s4)CC3)c(F)c2)C(=O)O1)C(Cl)Cl [compound 9, (S)—N-[[3-[-3-Fluoro-4-[N-1-(5-nitro-2-thienyl)-piperazinyl]phenyl] -2-oxo-5-oxazolidinyl]methyl]dichloroacetamide] | >16 | >16 | 0.5 (≈ 0.939 µM) | >16 | >16 | >16 | – | –
11 | CC(=O)NC[C@H]1CN(c2ccc(N3CCN(c4ccc([N+](=O)[O-])s4)CC3)cc2)C(=O)O1 [Compound No. 6, (S)—N-[[3-[4-[N-1-(5-nitro-2-thienyl)piperazinyl]-phenyl]-2-oxo-5-oxazolidinyl]-methyl]-acetamide] | 16 (≈ 35.9 µM) | 16 (≈ 35.9 µM) | 1 (≈ 2.24 µM) | 16 (≈ 35.9 µM) | 16 (≈ 35.9 µM) | 8 (≈ 18 µM) | – | –
